In one data set the test system is HUVEC. Briefly: Anti-angiogenesis activity in HUVEC assessed as inhibition of VEGF-induced tube formation incubated for 6 hrs by capillary tube formation assay. The class given is functional, cell-based. Particulars: Homo sapiens.
A short description of data set [1]: Cytotoxicity against mouse Hepa1c1c7 cells assessed as reduction in cell viability after 24 hrs by MTT assay. In kind it is cell-based. As to conditions: hepa1c1c7, 24 h.
Data set [2] addresses NAD(P)H dehydrogenase [quinone] 1 (Mus musculus) (UniProt Q64669). Briefly: Activation of quinone reductase in mouse Hepa1c1c7 cells at 20 uM incubated for 24 hrs by MTT based assay relative to control. As to conditions: filed as activator. The class given is cell-based.

For three molecules, IC50, Activity and fold change (FC) results are on record in ChEMBL document CHEMBL4665794, “Formicolides A and B, Antioxidative and Antiangiogenic 20-Membered Macrolides from a Wood Ant Gut Bacterium” (J Nat Prod, 2020).

NAD(P)H dehydrogenase [quinone] 1 (Mus musculus), sequence (Q64669 whole entry): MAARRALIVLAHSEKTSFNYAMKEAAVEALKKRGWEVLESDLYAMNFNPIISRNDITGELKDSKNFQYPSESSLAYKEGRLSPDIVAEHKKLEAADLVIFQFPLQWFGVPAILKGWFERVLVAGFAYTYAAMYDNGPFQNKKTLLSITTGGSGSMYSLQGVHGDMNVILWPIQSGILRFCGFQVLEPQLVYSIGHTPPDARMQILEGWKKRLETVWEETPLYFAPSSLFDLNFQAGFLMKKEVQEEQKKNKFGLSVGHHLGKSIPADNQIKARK

As usually defined, the IC50 is the concentration needed to halve the response being measured. With `CCN(CC)CCNC(=O)c1c(C)[nH]c(/C=C2\C(=O)Nc3ccc(F)cc32)c1C` [SUNITINIB], the IC50 in the data set with HUVEC worked out at 1.5 µM.
Turning to `C/C=C\[C@@H](O)CC[C@@H](C)[C@@H](O)[C@H](C)[C@]1(C)C/C=C/C=C/[C@H](O)C(=O)/C(C)=C/C=C/C(C)=C/[C@@H](O)/C(C)=C/CC(=O)O1`, the Activity result in data set [1] is listed as “Non-Toxic”. For the same molecule, the IC50 with HUVEC came out at 13 µM. This molecule also gave a fold change (FC) in data set [2] of 2.08.
For the molecule `CCC[C@]1(O)C[C@H](O)[C@@H](C)[C@H]([C@H](C)[C@@H]2C/C=C/C=C/[C@H](O)C(=O)/C(C)=C/C=C/C(C)=C/[C@@H](O)/C(C)=C/CC(=O)O2)O1`, in data set [1], the Activity entry is “Non-Toxic”. For the same molecule, in the data set on HUVEC, the IC50 stood at 20 µM. In data set [2], this molecule returned a fold change (FC) of 2.07.
